Values after ≈ are worked out from the molar mass of the structure shown.
Experiments:
Apis mellifera = settings: acute; duration: 48 hours; dermal; mortality
Avena sativa = settings: acute; duration: 21 days; other
Daphnia magna = settings: chronic/long-term; duration: 21 days
Lepomis macrochirus = settings: acute; duration: 96 hours; mortality
Pimephales promelas = settings: chronic/long-term
Tagia sp. = settings: acute; duration: 14 days; mortality
Aphidius rhopalosiphi = experiment: LR50; higher = less toxic; settings: acute; duration: 48 hours; mortality

## CNC(=O)ON=C(C)SC [Methomyl]
Apis mellifera
  LD50: 0.16 µg/piece
Avena sativa
  LEL: 2250 g/ha
Colinus virginianus; acute, oral, diet, mortality
  LC50: > 519 mg/kg-day
Colinus virginianus; acute, oral, mortality
  LD50: 24.2 mg/kg-day
Colinus virginianus; reproduction developmental
  NOEC: 20.3 mg/kg-day
Daphnia magna
  NOEC: 0.0016 mg/L
Lepomis macrochirus
  LC50: 0.63 mg/L (≈ 3.88 µM)
Pimephales promelas
  NOEC: 0.073 mg/L
Rattus norvegicus; acute, clinical chemistry
  NOAEL: 0.25 mg/kg-day
Rattus norvegicus; acute, oral, mortality
  LD50: 27.4 mg/kg-day
Rattus norvegicus; reproduction developmental, body weight
  NOAEL: 4.6 mg/kg-day
Tagia sp.
  LC50: 19 mg/kg
Aphidius rhopalosiphi
  LR50: 0.25 g/ha

— EPA's ToxValDB 9.5 (doi:10.2903/j.efsa.2009.222r)
